Experimental data reported in patent US20070060638A1, “Methods and therapies for potentiating therapeutic activities of a cannabinoid receptor agonist via administration of a cannabinoid receptor antagonist” (priority 2005, published 2007).

Legend:
[1] = tested on: Male Long-Evans rats (tail flick, thermal nociception); assay: Rat tail flick test, single intravenous injection; format: in vivo; conditions: for tail flick latency (MPE) compared with same dose of WIN alone: i.v. single injection
Method: (§1) Male Long-Evans rats (N=175) from Charles River (Montreal, QC, Canada) ranging from 230-380 grams, were housed in polycarbonate cages in pairs and given free access to food (Lab Diet, PMI Nutrition International, Inc., Brentwood, Mo., USA) and water. Animal quarters were kept on a reverse light-dark cycle (lights on from 7 pm to 7 am) and maintained at 22±2° C. and 45±20% relative humidity. Animals were given a minimum of 3 days prior to the experiment to acclimatize to the animal quarters.
(§2) All injections were administered in a volume of 1 ml/kg. All chemicals were dissolved in 5% dimethyl sulfoxide (DMSO; Sigma, Oakville, ON, Canada), 0.3% polyoxyethylenesorbitan monooleate (Tween® 80; Sigma, Oakville, ON, Canada) and 94.7% saline vehicle, and administered intravenously in the posterior ⅓ of the lateral tail vein.
For single injection testing, vehicle alone was used as a control injection (n=8).
(§3) The tail flick apparatus consisted of a projection lamp that creates radiant heat located just below the animal-testing surface (D'Amour, E. E. and Smith, D. L. J. Pharmacol. Exp. Ther. 1941 72:74-79). The light from the lamp projected through a small hole in the testing surface and was aimed at a photocell located 25 cm above the testing surface. A digital timer, connected to the apparatus, started when the heat source was activated. When the animal flicked its tail away from the heat source, the light from the projection lamp activated the photocell, simultaneously stopping the timer and turning off the lamp. The heat intensity was calibrated to result in baseline tail flick latencies of 2-3 seconds and a 10 second cutoff was used to minimize tissue damage.
Nociceptive reflexes to a thermal stimulus were tested using the tail flick analgesia meter. This apparatus focuses a hot beam on the animal's tail. The time it takes for the rat to flick its tail away from the heat source is a measure of pain; the longer the animal leaves its tail on the hotspot, the greater the degree of pain relief. On the day prior to tail flick testing, animals were handled on the tail flick apparatus for 5-10 minutes to reduce stress-induced analgesia (Kelly, S. J. and Franklin, K. B., Neuropharmacology 1985 24:1019-1025; Terman et al., Science 1984 226:1270-1277). For single injection tested groups, animals were restrained in a small towel and a baseline tail flick latency was measured. Following the baseline measure, animals were given a drug injection and tail flick latencies were assessed every 10 minutes for 90 minutes. For the repeated injection groups, animals were given one drug injection every day for seven days. Prior to the first injection, a baseline tail flick latency was measured. Following this measure, animals were given a drug injection and tail flick latencies were assessed 10 minutes post-injection. […] Post injection tail flick latencies were assessed on days 1, 3, 5, and 7. For all animals, tail flick latencies were converted into a percent of maximal possible effect (MPE) using the equation: MPE=[(post-injection latency−baseline latency)/(10 s cutoff−baseline latency)]×100
(§4) Separate two-way repeated measure ANOVAs were performed on the single injection groups, and repeated injection groups (see Example 2). Post-injection time (10-90 minutes for single injection groups) or day of injection (1-7 days for the repeated injection groups) were the within-subjects factors and drug group was the between-subjects factor. Whenever there were violations of sphericity, Huynh-Feldt corrections to the within-group degrees of freedom were reported. Because many drug group comparisons were irrelevant, a priori multiple comparisons were used to analyze the main drug effect using the Dunn's critical t-ratio. A corrected α of 0.005 was used for the single injection groups because there were 8 comparisons, and a corrected α of 0.01 was used for the repeated injection groups because there were 4 comparisons.

[2] = tested on: Male Long-Evans rats (tail flick, thermal nociception); assay: Rat tail flick test, repeated daily injections for 7 days (tolerance); format: in vivo; conditions: for tail flick latency thresholds compared with WIN alone: i.v. daily for 7 days
Method: as §1, §2
For repeated injection testing, vehicle alone was used as a control injection (n=8). […] The control group received 1.1 ng/kg ultra-low dose of SR alone.
as §3
Nociceptive reflexes to a thermal stimulus were tested using the tail flick analgesia meter. This apparatus focuses a hot beam on the animal's tail. The time it takes for the rat to flick its tail away from the heat source is a measure of pain; the longer the animal leaves its tail on the hotspot, the greater the degree of pain relief. On the day prior to tail flick testing, animals were handled on the tail flick apparatus for 5-10 minutes to reduce stress-induced analgesia (Kelly, S. J. and Franklin, K. B., Neuropharmacology 1985 24:1019-1025; Terman et al., Science 1984 226:1270-1277). For single injection tested groups, animals were restrained in a small towel and a baseline tail flick latency was measured. Following the baseline measure, animals were given a drug injection and tail flick latencies were assessed every 10 minutes for 90 minutes. For the repeated injection groups, animals were given one drug injection every day for seven days. Prior to the first injection, a baseline tail flick latency was measured. Following this measure, animals were given a drug injection and tail flick latencies were assessed 10 minutes post-injection. This time point was selected because it is the point at which maximal WIN-induced antinociception is detected in this protocol. Post injection tail flick latencies were assessed on days 1, 3, 5, and 7. For all animals, tail flick latencies were converted into a percent of maximal possible effect (MPE) using the equation: MPE=[(post-injection latency−baseline latency)/(10 s cutoff−baseline latency)]×100
as §4, with “A corrected α of 0.005 was used for the single injection groups because there were 8 comparisons, and a corrected α of 0.01 was used for the repeated injection groups because there were 4 comparisons.” left out

Compound	tail flick latency (MPE) compared with same dose of WIN alone ([1]; SR 0.055 ng/kg mixed with WIN 0.0625 mg/kg, t(14)=3.28)	tail flick latency (MPE) compared with same dose of WIN alone ([1]; SR 0.083 ng/kg with WIN 0.09375 mg/kg, t(14)=8.16, P≦0.005)	tail flick latency (MPE) compared with same dose of WIN alone ([1]; SR 0.55 ng/kg in combination with WIN 0.0625 mg/kg, t(14)=6.72, P≦0.005)	tail flick latency (MPE) compared with same dose of WIN alone ([1]; SR 0.83 ng/kg with WIN 0.09375 mg/kg, t(14)=9.63, P≦0.005)	antinociceptive properties of WIN in rat tail flick test (FIG. 1A, 1B) ([1]; ultra-low dose SR (0.55, 0.055, 0.83, 0.083 ng/kg) with WIN (0.0625 or 0.09375 mg/kg), single i.v. injection)	tail flick latency thresholds compared with WIN alone ([2]; SR 0.11 ng/kg with WIN 0.125 mg/kg, t(14)=14.35, P≦0.01)	tail flick latency thresholds compared with WIN alone ([2]; SR 1.1 ng/kg with WIN 0.125 mg/kg, t(14)=9.77, P≦0.01)	prevention of WIN-induced tolerance / enhancement of antinociception ([2]; SR to WIN dose ratio 1:100,000)	prevention of WIN-induced tolerance / enhancement of antinociception ([2]; SR to WIN dose ratio 1:1,000,000, slightly (although not significant) better at preventing tolerance)	development of tolerance to the analgesic action of WIN in rat tail flick test (FIG. 2) ([2]; daily ultra-low dose SR (1.1 or 0.11 ng/kg) with WIN 0.125 mg/kg, i.v.)	degree of antinociception in the tail flick test ([1]; rat, in vivo)	tail flick latency (MPE) compared with vehicle ([1]; rat, in vivo)	tail flick latency compared with vehicle ([2]; WIN 0.125 mg/kg i.v. alone, daily for 7 days, tested days 1, 3, 5, 7, t(14)=10.44, P≦0.01)	degree of antinociception in the tail flick test ([2]; WIN alone at 0.125 mg/kg i.v.)	time point post-injection of maximal WIN-induced antinociception ([2]; tail flick, i.v.) [min]
Cc1c(C(=O)NN2CCCCC2)nn(-c2ccc(Cl)cc2Cl)c1-c1ccc(Cl)cc1 [SR, N-(Piperidin-1-yl)-5-(4-chlorophenyl)-1-(2,4-dichlorophenyl)-4-methyl-1H-pyrazole-3-carboxamide]	no difference	longer tail flick latencies	longer tail flick latencies	longer tail flick latencies	enhanced	greater tail flick latency thresholds	greater tail flick latency thresholds	effective	effective	prevented the development of tolerance	–	–	–	–	–
CS(=O)(=O)O.Cc1c(C(=O)c2cccc3ccccc23)c2cccc3c2n1[C@H](CN1CCOCC1)CO3 [WIN, (R)-(+)-[2,3-Dihydro-5-methyl-3-(4-morpholinylmethyl)pyrrolo[1,2,3-de]-1,4-benzoxazin-6-yl]-1-naphthalenylmethanone mesylate]	–	–	–	–	–	–	–	–	–	–	sub-maximal antinociception	no difference	greater tail flick latencies	maximal antinociception	10
